Assay results: publication PMC11637823, “Evaluating the Antimicrobial Efficacy of a Designed Synthetic Peptide against Pathogenic Bacteria” (Journal of Microbiology and Biotechnology, 2024)
≈ marks a conversion by molar mass, not a printed value. Ends that are not written are not given here.

Assays:
[1] = test system: A. baumannii biofilm (IC 003321216); assay: Mature biofilm eradication, MTT viability; conditions: ciprofloxacin alone
[2] = test system: Escherichia coli KPC+ 001812446; assay: microbe, parasite or virus in culture
Procedure: (§1) Clinical and Laboratory Standards Institute (CLSI) guidelines performed the peptide MIC assays. Bacterial colonies were isolated on the Muller Hinton Agar (MHA) and plated at a final concentration of 1.5 × 10^5 CFU/ml.
(§2) For the results, bacterial growth was determined by visual inspection and confirmed by absorbance measurement at 595 nm after 24 h of incubation using a Multiskan GO microplate reader (Thermo Fisher Scientific, USA). […] The rest of the assay was conducted as previously described.
(§3) The MBC was determined based on the MIC results. Three replicates of 10 μl were extracted from the microplate wells, placed on MHA, and then kept in an incubator at 37°C for 24 h. […] All experiments were performed in triplicate.

[3] = test system: Pseudomonas aeruginosa ATCC 27853; assay: microbe, parasite or virus in culture
Procedure: as §1, §2, §3

[4] = test system: Staphylococcus aureus (MRSA) ATCC 33591; assay: microbe, parasite or virus in culture
Procedure: as §1, §2, §3

[5] = test system: Staphylococcus aureus (MRSA) ATCC 43300; assay: microbe, parasite or virus in culture
Procedure: as §1, §2, §3

[6] = test system: Staphylococcus saprophyticus ATCC 29970; assay: microbe, parasite or virus in culture
Procedure: as §1, §2, §3

Gram-negative bacteria = assay: MIC and MBC assays, span over strains; format: cell-based
Procedure: as §1, §2, §3

E. coli = test system: E. coli; set-up: method as in PMID 16352849; conditions: cited from earlier work
ESKAPE pathogens = conditions: at one-third of the MIC; cited from earlier work
Excerpt: A. baumannii, known for colonising medical equipment surfaces like urinary catheters to form a biofilm, contributes to recurrent and persistent patient infections. WLBU-2, a synthetic cationic peptide, and LL-37, a naturally occurring antimicrobial peptide, underwent testing for efficacy against a range ...

[7] = test system: Acinetobacter baumannii ATCC 19906; conditions: ATCC 19906, 24 h
Procedure: as §1, §2, §3

[8] = test system: Acinetobacter baumannii IC 003321216; conditions: IC 003321216, 24 h
Procedure: as §1, §2, §3

[9] = test system: Escherichia coli ATCC 35218; conditions: ATCC 35218, 24 h
Procedure: as §1, §2, §3

[10] = test system: Klebsiella pneumoniae ATCC 700603; conditions: ATCC 700603, 24 h
Procedure: as §1, §2, §3

human erythrocytes = format: cell-based; conditions: 100 µM
Procedure: Hemolytic activity. As hemolysis is an effect widely observed among antimicrobial peptides, we investigated the RK8 peptide hemolytic activity based on the protocol proposed by Uggerhøj et al. using erythrocytes. The blood sample (1 ml) was washed three times with 3 ml of saline solution through centrifugation cycles of 8 min at 1,380 ×g to secure a concentrated solution of erythrocytes. […] The samples were incubated for 60 min at 37°C and sequentially centrifuged for 10 min at 2,455 ×g. Subsequently, 100 μl of the supernatant was transferred to 96-well microplate wells in triplicate. The free haemoglobin content was determined at 414 nm on a Multiskan GO microplate reader (Thermo Fisher Scientific).

in vitro = assay: in vitro
Procedure: The mixture was maintained at 30°C. Aliquots of 150 μl were collected after 0, 15, 30, 45, 60, and 120 min, mixed with ten μl of Trifluoroacetic Acid (TFA) and centrifuged at 14 000 rpm at 4°C for 10 min [19]. High-Performance Liquid Chromatography (HPLC) monitored the stability of the peptide using the C-18 reversed-phase hydrophobic column (μ Bondapak C18, 3.9 × 300 mm, Waters, USA) at 25°C. The peptide's remaining percentage during degradation kinetics was calculated by integrating the peak area corresponding to the RK8 peptide, injecting 40 μl of the incubation product in triplicate. The assay was conducted in an Ultimate 3000 chromatograph (Thermo Fisher Scientific). A separation program of 60 min at 1 ml/min was implemented, with monitoring of the 220 and 280 nm wavelengths. Thermo Scientific's ChromeleonTM Chromatography Data System (CDS) 7 software determined the area under the curve.

[11] = test system: E. coli, P. aeruginosa, and A. baumanii; conditions: 24 h
[12] = test system: RAW 264.7 murine macrophages; conditions: 64 µM
Procedure: Cellular viability. RAW 264.7 murine macrophages' cellular viability was evaluated in the presence of the RK8 peptide, according to the method proposed by Mosmann [18], using the enzymatic reduction of the reagent 3-(4,5-dimethylthiazol-2-yl bromide) -2,5-diphenyltetrazolium (MTT).
After detaching from the culture bottle, their density was determined, and they were seeded in a 96-well microplate at a density of 6 × 10^3 cells per well. After being placed in microplates, the cells were incubated for 24 h. The culture medium was replaced with a DMEM culture medium lacking SFB supplementation. Instead, it contained a serial dilution of RK8 ranging from 1 to 64 μM. After 24 h, the medium containing RK8 was removed and replaced with 100 μl of DMEM medium containing MTT 0.5 mg/ml. After four hours of incubation, the medium was removed again, and the reduced formazan crystals were resuspended with the addition of 100 μl of DMSO. Then, the absorbance of the wells was determined at 630 nm in a Varioskan microplate reader (Thermo Fisher Scientific). Three independent experiments were performed in triplicate. Cell viability was calculated from the following formula:
Cell viability (%) = (AbsSample÷AbsNegative control) × 100

[13] = Staphylococcus saprophyticus, ATCC29970, 24 h

## O=C(O)c1cn(C2CC2)c2cc(N3CCNCC3)c(F)cc2c1=O [Ciprofloxacin, ciprofloxacin]
[1]
  impact on biofilm: no impact

## CN[C@H](CC(C)C)C(=O)N[C@H]1C(=O)N[C@@H](CC(N)=O)C(=O)N[C@H]2C(=O)N[C@H]3C(=O)N[C@H](C(=O)N[C@H](C(=O)O)c4cc(O)cc(O)c4-c4cc3ccc4O)[C@H](O)c3ccc(c(Cl)c3)Oc3cc2cc(c3O[C@@H]2O[C@H](CO)[C@@H](O)[C@H](O)[C@H]2O[C@H]2C[C@](C)(N)[C@H](O)[C@H](C)O2)Oc2ccc(cc2Cl)[C@H]1O [Vancomycin, vancomycin, reference compound]
[2]; Escherichia coli, 24 h
  MBC: 0.5 µM (≈ 0.725 µg/mL)
  MIC: 0.5 µM (≈ 0.725 µg/mL)
[3]; Pseudomonas aeruginosa, ATCC27853, 24 h
  MBC: 1 µM (≈ 1.45 µg/mL)
[4]; Staphylococcus aureus, 24 h
  MBC: 1 µM (≈ 1.45 µg/mL)
[5]; Staphylococcus aureus, ATCC43300|MRSA, 24 h, 10 μl from MIC wells on MHA, 37°C, triplicate
  MBC: 1 µM (≈ 1.45 µg/mL)
[6]; 10 μl from MIC wells on MHA, 37°C, 24 h, triplicate
  MBC: one
[6]; [13]
  MBC: 1 µM (≈ 1.45 µg/mL)
  MIC: 0.5 µM (≈ 0.725 µg/mL)
Gram-negative bacteria; read-out: MBC values
  MBC: 0.5 to 4 µM (≈ 0.725 to 5.8 µg/mL)
Gram-negative bacteria; span over Gram-negative strains, 1.5 × 10^5 CFU per ml
  MIC: 0.5 to 8 µM (≈ 0.725 to 11.6 µg/mL)

## Indolicidin
E. coli
  MIC: 10 µM

## LL-37
ESKAPE pathogens
  inhibition of biofilm formation: 90%

## RKWRKWWK [RK8]
[2]; KPC+ 001812446, 24 h
  MBC: 8 µM
  MIC: 16 µM
[3]; ATCC 27853, 24 h
  MBC: 64 µM
[4]; ATCC 33591, 24 h
  MBC: 8 µM
  MIC: 8 µM
[5]; ATCC 43300, 24 h
  MBC: 8 µM
  MIC: 16 µM
[6]; ATCC 29970, 24 h
  MBC: 64 µM
  MIC: >64 µM
[7]
  MBC: 4 µM
  MIC: >64 µM
[8]
  MBC: 4 µM
  MIC: 64 µM
[9]
  MBC: 2 µM
  MIC: >64 µM
[10]
  MBC: 64 µM
  MIC: >64 µM
Human erythrocytes
  hemolysis: approximately 4.6%
In vitro; 25% FBS in ultrapure water, 30°C, 120 min, RP-HPLC C18 peak area, triplicate
  decrease in the overall area: 40%
In vitro; 25% FBS in ultrapure water, 30°C, first 45 min, RP-HPLC C18 peak area, triplicate
  area under the RK8 peak (intact peptide): unaffected
In vitro; 25% fetal bovine serum (FBS)
  metabolised at 1 h, 0.385 mg/ml: 12.2%
  remaining at 2 h, 0.385 mg/ml: ~60%
[11]
  concentrations with bactericidal effect (consistent MIC and MBC values): 0.5 to 4 µM
[12]
  cell viability: 90.1%
